The test system of data set [1] is NCI-H460 tumor transplanted in nude mice. Kind of data set: NCI-H460 tumor transplanted in nude mice, intravenous administration. As to conditions: for weight loss rate: NCI-H460 nude mice; for effect on NCI-H460 tumor (growth curve and tumor weight), in words: i.v. every three days x4, SL-01 5, 10, 20 mg/Kg, GEM 10 mg/Kg.
Procedure: The highest concentrations of both were 10 mg/mL and 240 mg/mL, respectively. […] Assuming that each mouse weighed 20 g and 0.1 mL of drug solution was administered, then the dosage of SL-01 at 5, 10 or 20 mg/kg needed drug concentrations of 1, 2, 4 mg/mL, respectively.
Cell lines and cultivation: the NCI-H460 lung cancer cell line, the HepG2 liver cancer cell line, or the HT29 colon cancer cell line were cultured by adherent culturing in D-MEM (Gibco, Inc.) containing 10% fetal calf serum. These cells were passaged once by a dilution of 1:3 in every 2-3 days. The cells were collected when they were passaged to grow into 25 of 10 cm culture dishes.
3.1 The establishment of a model of transplanted tumors in nude mice: Well-grown NCI-H460 cells, HT29 cells or HepG2 cells were collected (25 of 10 cm culture dishes). The cell concentration was adjusted to 1.5×10^7/mL with serum-free DMEM. 200 μL cell suspension was inoculated into the right back of 6 weeks old male BALB/C nude mice by subcutaneous injection using a 1 mL syringe.
The treatment starting day was the first day (d0). The corresponding drugs were injected intravenously to the tail vein every three days. The administration volume to each mouse was adjusted according to its body weight. A total of four administrations (d0, d3, d6, d9) were applied. The long and short tumor pathlines were measured with a slide caliper at the beginning of the administration and every 3 days thereafter. The tumor volume V was calculated (V=½ab^2, a is the tumor long pathline, b is the tumor short pathline). The growth curve was drawn with the time as the horizontal axis, and tumor volume as the vertical axis. The experiment was terminated when the tumor size of the control group reached 3000 mm^3. Blood samples were taken from the eyeball and thereafter the nude mice were euthanized by back neck vertebra cervical dislocation. The tumor tissues were removed and weighed. The inhibition rate of tumor growth was calculated.
For data set [2], the system named is NCI-H460: a human lung cancer cell line. Kind of data set: MTT analytical method, NCI-H460 cells. The class given is cell-based. As to conditions: 72 h. An excerpt: (§1) MTT analytical method was used to test the prodrugs for various tumor cells.
(§2) • 1) Cell lines: NCI-H460, A549, LOVO, HT-29, MDA-MB-231, SGC7901, HepG2 or BEL-7402 cell lines. Culture: adherent culturing in D-MEM (Hyclone, Inc.) containing 10% fetal calf serum. The initial cell concentration was about 3×10^5 /mL. The cell was passaged by 1:3 dilution in every 2-3 days. On the day before the test, the cell was passaged by 1:2 dilution, the cell concentration for the test was 5-10×10^5 /mL. • 2) Dissolution and dilution of compounds: according to the weight and molecular weight of the drugs provided, 100-200 μL of DMSO was added. Then normal saline was added to make the final diluted concentration of the drugs be 5 mM (Note that the final concentration of DMSO should not be more than 10%). • 3) D-MEM or RPMI 1640 cell culture medium, Gibco, Inc. • 4) Fetal calf serum Hyclone, Inc. • 5) Cell dissociation buffer, 0.25% Trypsin+0.02% EDTA. • 6) MTT solution, MTT Powder (Sigma) were dissolved in PBS buffer solution to make a solution of 5 mg/mL. The solution was filtered by a 0.22 μm micropore membrane and stored at −20° C. • 7) PBS buffer solution. • 8) 10% acidified SDS, 0.01N HCl. • 9) Centrifuge tubes, haustorial tubes etc. (BD, Inc.); 96-well plates (Costatr, Inc.) Procedures: • 1) Cell inoculation: Cells grown for 24 hours after passage, which cells were in good growth state, were used. The cells were harvested by the routine method. The cell concentration was adjust with a fresh culture solution to 2×10^5/mL (for adherent cells)-3×10^5/mL (for suspension cells). The adherent cells were inoculated at 100 μL/well and then cultivated in an incubator with 5% CO2 at 37° C. for 24 h. Thereafter the used culture solution was removed and 95 μL/well of fresh culture solution was added. The suspension cells were inoculated at 95 μL/well directly. • 2) Drugs treatment: 9 concentration grades were designed for every drug, and every concentration had 3 wells. The control group had 5 wells. The control group was tested simultaneously in each test. The final concentrations of a drug added were […], and 5 μL normal saline was added to the control group. • 3) Cell culture and detection: the cells were cultured in an incubator with 5% CO2 at 37° C. for 72 h after the drug was added, then 10 μL MTT was added to each well and the culture was continued for 4 h. 100 μL of 10% SDS (containing 0.01N HCl) was added to each well. After 24 h, the absorbance (A) of each well was determined by Bio-rad 680 ELISA with the detection wavelength of 570 nm and the reference wavelength of 630 nm. Calculation:
(§3) First, the absorbance (A) of each well was averaged (removing any data with big difference). […] A0 was the mean absorbance of the control wells. The effect curve of the drug concentration was drawn using EXCEL software and the drug concentration for 50% cell survival was calculated according to an appropriate computing methods.
(Tetrazolium assays rely on reduction of a dye to a coloured formazan, in cell work by metabolically active cells.)

The test system of data set [3] is LOVO: a human colon cancer cell line. Kind of data set: MTT analytical method, LOVO cells. The data set is classed as cell-based. Particulars: 72 h.
From the text: as §1, §2, §3

The nature of data set [4]: Metabolism in liver microsomal enzymes (liver S9 fraction). The data set is classed as in vitro ADME, mouse. Particulars: for Degrade %: liver S9 fraction; for HPLC peak area of drug: liver S9 fraction + NADPH, 37° C. As to the method:
The liver of a mouse was taken out and washed by cold normal saline and dried with filter paper, then cut into small pieces. They were washed 2-3 times with ice cold PBS (pH=7.4) until the elute became colorless or faint yellow. The small pieces of the liver were cut into fragments. Then PBS (pH=7.4) solution in an amount four times of the weight of the liver was added. The liver fragments were homogenated under ice-bath to avoid the down-regulation of enzymatic activity. The homogenated mixture was transferred into a centrifuge tube with stopper and centrifuged for 20 min at 4000 r/min to get the supernatant. Then, the supernatant was centrifuged at 12000 r/min for 20 min to get the supernatant, which was the S9 fraction.
Liver microsomal S9 was mixed with drug solutions. 1800 μL of the mixture in test tube was pre-incubated in a water-bath for 5 min at 37° C. 200 μL of 10 mmol/L NADPH solution was added to start the reaction. The final reaction volume was 2 mL. 200 μL of the incubation solution was taken at 0 min, 10 min, 20 min, 40 min, 1 h, 2 h, 4 h, 6 h, 12 h, respectively. 1 mL of ice cold isopropanol was added into the solution immediately and vortexed for 30 s and kept still for 5 min. 2.5 mL of EtOAc was added and vortexed and centrifuged at 4000 rpm for 15 min. The supernatant was taken and dried by blowing in nitrogen. The dried sample was redissolved in 200 μL HPLC mobile phase solution. 20 μL sample was loaded to the HPLC. The chromatography and peak area were recorded.
In general terms: Liver microsomes are vesicles of endoplasmic reticulum, rich in cytochrome P450 enzymes.

Data set [5] deals with HepG2: a human liver cancer cell line. As to the kind of experiment: MTT analytical method, HepG2 cells. The data set is classed as cell-based. Particulars: 72 h.
From the text: as §1, §2, §3

Data set [6] relates to A549: a human lung cancer cell line. Kind of data set: MTT analytical method, A549 cells. The data set is classed as cell-based. Particulars: 72 h.

Some results are limits rather than exact numbers.

Regarding `Nc1ccn([C@@H]2O[C@H](CO)[C@@H](O)C2(F)F)c(=O)n1` [Gemcitabine, gemcitabine, reference compound], the weight loss rate in data set [1] (gemcitabine positive control 10 mg/Kg i.v.) is 14%. In addition, the “effect on NCI-H460 tumor (growth curve and tumor weight), in words” value in data set [1] is recorded as “inhibitory effect”. Besides, the IC50 in data set [2] was less than 1000 nM; in data set [3], less than 1 µM; in data set [5], less than 1 µM; in data set [6] it was less than 2000 nM. The Degrade % in data set [4] (0 min) worked out at 0%; in data set [4] (1 h), 3.64%; in data set [4] (2 h), 56.16%; in data set [4] (4 h) it was 72.02%; in data set [4] (6 h), 85.55%; in data set [4] (12 h), 95.13%.

As for `CCCCCCCCCCCCOC(=O)c1nccnc1C(=O)Nc1ccn([C@@H]2O[C@H](CO)[C@@H](O)C2(F)F)c(=O)n1` [Compound 4, Dodecyl-3-((1-((2R,4R,5R)-3,3-difluoro-4-hydroxy-5-(hydroxymethyl)-tetrahydrofuran-2-yl)-2-oxo-1,2-dihydropyrimidin-4-yl)carbamoyl)pyrazine-2-carboxylate], the weight loss rate in data set [1] (SL-01 high dose group 20 mg/Kg i.v.) is 7%. Besides, the “effect on NCI-H460 tumor (growth curve and tumor weight), in words” value in data set [1] is “inhibitory effect”. The IC50 in data set [2] was less than 2000 nM; in data set [3], 16 µM; in data set [5] it was 6 µM; in data set [6], less than 2000 nM. Further, the “HPLC peak area of drug” value turned out to be 179613.3 in data set [4] (0 min); 172893.5 in data set [4] (1 h); 142419.3 in data set [4] (2 h); 64632.59 in data set [4] (4 h); 27009.4 in data set [4] (6 h); 18730.51 in data set [4] (12 h). The Degrade % in data set [4] (0 min) is listed as 0%; in data set [4] (1 h), 3.74%; in data set [4] (2 h) it was 20.71%; in data set [4] (4 h) it was 64.02%; in data set [4] (6 h), 84.96%; in data set [4] (12 h) it was 89.57%.

In general, IC50 refers to the midpoint of a concentration-inhibition curve. Low values mean greater potency, high ones weaker potency.

The values above are taken from patent publication US8653048B2 (Sanlugen Pharmatech Ltd., priority 2009, dated 2014).
